In US11834443B2, “Crystalline form of the compound (s)-3-{4-[5-(2-cyclopentyl-6-methoxy-pyridin-4-yl)-[1,2,4]oxadiazol-3-yl]-2-ethyl-6-methyl-phenoxy}-propane-1,2-diol” (Idorsia Pharmaceuticals Ltd, priority 2015, dated 2023):
Converted amounts (≈) assume the structure as drawn.

Key:
[1] = Gravimetric vapour sorption (GVS) analysis, hygroscopicity; assay type: physicochemical; details: mass change between 40% and 80% relative humidity, first adsorption scan, 25° C.
Method: Gravimetric Vapour Sorption (GVS) Analysis:
Measurements were performed simultaneously for the COMPOUND in the crystalline form A, B, and C on a multi sample instrument SPS-100n (Projekt Messtechnik, Ulm, Germany) operated in stepping mode at 25° C.

Aqueous solubility = assay type: physicochemical; details: in water

| hygroscopic classification (European Pharmacopeia Technical Guide) [1] | mass gain [1] | solubility (Aqueous solubility) | Structure (SMILES) |
| --- | --- | --- | --- |
| Non-hygroscopic | less than 0.2% |  | CCc1cc(-c2noc(-c3cc(OC)nc(C4CCCC4)c3)n2)cc(C)c1OC[C@@H](O)CO [Form A, (S)-3-{4-[5-(2-cyclopentyl-6-methoxy-pyridin-4-yl)-[1,2,4]oxadiazol-3-yl]-2-ethyl-6-methyl-phenoxy}-propane-1,2-diol] |
| Slightly hygroscopic | 0.8% |  | CCc1cc(-c2noc(-c3cc(OC)nc(C4CCCC4)c3)n2)cc(C)c1OC[C@@H](O)CO [Form C, (S)-3-{4-[5-(2-cyclopentyl-6-methoxy-pyridin-4-yl)-[1,2,4]oxadiazol-3-yl]-2-ethyl-6-methyl-phenoxy}-propane-1,2-diol] |
| Slightly hygroscopic | 0.5% |  | CCc1cc(-c2noc(-c3cc(OC)nc(C4CCCC4)c3)n2)cc(C)c1OC[C@@H](O)CO [Form B, (S)-3-{4-[5-(2-cyclopentyl-6-methoxy-pyridin-4-yl)-[1,2,4]oxadiazol-3-yl]-2-ethyl-6-methyl-phenoxy}-propane-1,2-diol] |
|  |  | ~0.06 µg/mL (≈ 0.132 µM) | CCc1cc(-c2noc(-c3cc(OC)nc(C4CCCC4)c3)n2)cc(C)c1OC[C@@H](O)CO [COMPOUND, (S)-3-{4-[5-(2-cyclopentyl-6-methoxy-pyridin-4-yl)-[1,2,4]oxadiazol-3-yl]-2-ethyl-6-methyl-phenoxy}-propane-1,2-diol] |
